Data on four molecules can be found in article PMC11822212, “High-throughput screening identifies Aurora kinase B as a critical therapeutic target for Merkel cell carcinoma” (Nature Communications, 2025).

Structures can show the parent of a compound that is named as a salt. Where two headings read alike, the source gives them in different places.

For assay [1], the system named is six MCC cell lines and four control cell lines. The experiment in a line: qHTS cell viability, all 10 cell lines screened. Type of assay: cell-based. In general terms: qHTS replaces the single test concentration by a dilution series.
In a further assay the test system is HACAT cells. The experiment in a line: qHTS cell viability (CellTiter-Glo, 72 h; primary screen), control cell line. Type of assay: cell-based, human.
The subject of the next assay is MCC26 cells (VN-MCC). The experiment in a line: qHTS cell viability (CellTiter-Glo, 72 h; primary and follow-up small molecule screen). The assay is classed as cell-based, human.
A further assay relates to CRL-7250 cells. The experiment in a line: qHTS cell viability (CellTiter-Glo, 72 h; primary screen), control cell line. Type of assay: cell-based.
The test system of the next assay is MCC13 cells (VN-MCC). The experiment in a line: qHTS cell viability (CellTiter-Glo, 72 h; primary and follow-up small molecule screen). The assay is classed as cell-based, human.
In a further assay the test system is MKL-2 cells (VP-MCC). Described as above. Type of assay: cell-based, human.
Assay [2] relates to VN-MCC cell lines (MCC13, MCC26, UISO). The experiment in a line: qHTS cell viability, VN-MCC cell lines as a group (mean AUC, VN.MCC.avg). Type of assay: cell-based, human.
The next assay relates to NIH-3T3 cells. The experiment in a line: qHTS cell viability (CellTiter-Glo, 72 h; primary screen), control cell line. Type of assay: cell-based, mouse.
Assay [3] concerns VP-MCC cell lines (WAGA, MKL-1, MKL-2). The experiment in a line: qHTS cell viability, VP-MCC cell lines as a group (mean AUC, VP.MCC.avg). Type of assay: cell-based, human.
The test system of another assay is HEK293T cells. The experiment in a line: qHTS cell viability (CellTiter-Glo, 72 h; primary screen), control cell line. Type of assay: cell-based, human.
The test system of another assay is UISO cells (VN-MCC). The experiment in a line: qHTS cell viability (CellTiter-Glo, 72 h; primary and follow-up small molecule screen). The assay is classed as cell-based, human.
Assay [4] deals with MCC cell lines (WAGA, MKL-1, MKL-2, MCC13, MCC26, UISO). The experiment in a line: qHTS cell viability, all six MCC cell lines as a group (mean AUC, MCC.avg). The assay is classed as cell-based, human.
Assay [5] relates to control cell lines (HACAT, HEK293T, CRL-7250, NIH-3T3). The experiment in a line: qHTS cell viability, control cell lines as a group (mean AUC, Control.avg). Type of assay: cell-based.
Another assay deals with MKL-1 cells (VP-MCC). The experiment in a line: qHTS cell viability (CellTiter-Glo, 72 h; primary and follow-up small molecule screen). Type of assay: cell-based, human.
Another assay deals with WAGA cells (VP-MCC). Described as above. Type of assay: cell-based, human.
The mark [6] stands for this setting: NPC library, therapeutic window: Control avg AUC minus MCC avg AUC.
Where [7] appears, read: NPC library, qHTS dose-response AUC, HACAT control.
Setting [8] is: NPC library, qHTS dose-response AUC, MCC26.
Setting [9] is: NPC library, qHTS dose-response AUC, CRL7250 control.
Where [10] appears, read: NPC library, qHTS dose-response AUC, MCC13.
[11] abbreviates: NPC library, qHTS dose-response AUC, MKL2.
Where [12] appears, read: NPC library, mean AUC of VN-MCC cell lines.
The mark [13] stands for this setting: NPC library, therapeutic window: Control avg AUC minus VN-MCC avg AUC.
[14] abbreviates: NPC library, qHTS dose-response AUC, NIH3T3 control.
Where [15] appears, read: NPC library, mean AUC of VP-MCC cell lines.
Setting [16] is: NPC library, therapeutic window: Control avg AUC minus VP-MCC avg AUC.
Setting [17] is: NPC library, qHTS dose-response AUC, HEK293T control.
Setting [18] is: NPC library, qHTS dose-response AUC, UISO.
The mark [19] stands for this setting: NPC library, mean AUC of six MCC cell lines.
Where [20] appears, read: NPC library, mean AUC of control cell lines.
Setting [21] is: NPC library, qHTS dose-response AUC, MKL1.
The mark [22] stands for this setting: NPC library, qHTS dose-response AUC, WAGA.

For `CCCCOc1ccc(C(=O)CCN2CCCCC2)cc1` [Dyclonine hydrochloride], in assay [1] (setting [6]), the Control-MCC is on record as 18.5075. In the assay with HACAT cells (setting [7]), the HACAT_AUC is listed as 461.491. In the assay with MCC26 cells (VN-MCC) (setting [8]), the MCC26_AUC was determined as 466.065. Further, the CRL7250_AUC in the assay on CRL-7250 cells (setting [9]) worked out at 454.097. In the assay on MCC13 cells (VN-MCC) (setting [10]), this molecule returned an MCC13_AUC of 493.918. Further, the MKL2_AUC in the assay with MKL-2 cells (VP-MCC) (setting [11]) worked out at 401.71. For the same molecule, in assay [2] (setting [12]), the VN-MCC_Avg_AUC is reported as 475.619. In assay [2] (setting [13]), this molecule had a Control-VN-MCC of -13.9648. The same molecule showed an NIH3T3_AUC with NIH-3T3 cells (setting [14]) of 489.536. The same molecule came in with a VP-MCC_Avg_AUC in assay [3] (setting [15]) of 410.674. For the same molecule, the Control-VP-MCC in assay [3] (setting [16]) amounted to 50.9798. Also, in the assay on HEK293T cells (setting [17]), the HEK293T_AUC stood at 441.492. In the assay on UISO cells (VN-MCC) (setting [18]), this molecule yielded a UISO_AUC of 466.874. In addition, in assay [4] (setting [19]), the MCC_Avg_AUC amounted to 443.147. In addition, the Control_Avg_AUC in assay [5] (setting [20]) was 461.654. This molecule also yielded an MKL1_AUC with MKL-1 cells (VP-MCC) (setting [21]) of 424.663. In addition, the WAGA_AUC in the assay with WAGA cells (VP-MCC) (setting [22]) is 405.649.

For `CCOC(=O)[C@H](CCc1ccccc1)N[C@@H](C)C(=O)N1CCC[C@H]1C(=O)O` [Enalapril], in [1] (setting [6]), the Control-MCC is given as 89.4069. In the assay on HACAT cells (setting [7]), this molecule had an HACAT_AUC of 446.912. In the assay on MCC26 cells (VN-MCC) (setting [8]), this molecule came in with an MCC26_AUC of 507.531. The molecule further yielded a CRL7250_AUC in the assay with CRL-7250 cells (setting [9]) of 492.563. The MCC13_AUC in the assay with MCC13 cells (VN-MCC) (setting [10]) was 506.069. In the assay with MKL-2 cells (VP-MCC) (setting [11]), this molecule came in with an MKL2_AUC of 179.263. In [2] (setting [12]), this molecule came in with a VN-MCC_Avg_AUC of 510.759. In assay [2] (setting [13]), this molecule had a Control-VN-MCC of -33.606. The molecule also registered an NIH3T3_AUC in the assay with NIH-3T3 cells (setting [14]) of 481.677. For the same molecule, the VP-MCC_Avg_AUC in [3] (setting [15]) turned out to be 264.734. In addition, the Control-VP-MCC in assay [3] (setting [16]) is given as 212.42. The molecule also displayed an HEK293T_AUC in the assay on HEK293T cells (setting [17]) of 487.46. This molecule also yielded a UISO_AUC in the assay with UISO cells (VN-MCC) (setting [18]) of 518.678. The same molecule had an MCC_Avg_AUC in [4] (setting [19]) of 387.746. The molecule also had a Control_Avg_AUC in assay [5] (setting [20]) of 477.153. Also, in the assay on MKL-1 cells (VP-MCC) (setting [21]), the MKL1_AUC was found to be 312.443. Also, the WAGA_AUC in the assay with WAGA cells (VP-MCC) (setting [22]) is 302.495.

In [1], `CC(O)C(=O)O.CCOc1ccc2nc3cc(N)ccc3c(N)c2c1.O` [Ethacridine lactate hydrate] displayed a Control-MCC of 43.0859. The molecule further showed an HACAT_AUC in the assay on HACAT cells of 492.059. In the assay on MCC26 cells (VN-MCC), this molecule had an MCC26_AUC of 472.196. In addition, the CRL7250_AUC in the assay on CRL-7250 cells stood at 429.434. In the assay on MCC13 cells (VN-MCC), this molecule gave an MCC13_AUC of 439.497. Besides, the MKL2_AUC with MKL-2 cells (VP-MCC) stood at 356.151. Also, in [2], the Control-VN-MCC was 9.1824 and the VN-MCC_Avg_AUC was 428.861. Besides, the NIH3T3_AUC in the assay on NIH-3T3 cells is on record as 456.142. In [3], this molecule yielded a Control-VP-MCC of 76.9894 and a VP-MCC_Avg_AUC of 361.054. In addition, in the assay with HEK293T cells, the HEK293T_AUC stood at 374.537. Further, the UISO_AUC in the assay on UISO cells (VN-MCC) was 374.889. Further, in [4], the MCC_Avg_AUC was 394.957. The same molecule returned a Control_Avg_AUC in assay [5] of 438.043. This molecule also came in with an MKL1_AUC with MKL-1 cells (VP-MCC) of 391.16. Also, the WAGA_AUC with WAGA cells (VP-MCC) amounted to 335.85.

Take `CCOc1ccc2nc(S(N)(=O)=O)sc2c1` [Ethoxzolamide]: in assay [1] (setting [6]), the Control-MCC is listed as 46.11. This molecule also came in with an HACAT_AUC with HACAT cells (setting [7]) of 484.155. For the same molecule, the MCC26_AUC with MCC26 cells (VN-MCC) (setting [8]) came out at 444.564. This molecule also gave a CRL7250_AUC with CRL-7250 cells (setting [9]) of 486.514. The same molecule returned an MCC13_AUC with MCC13 cells (VN-MCC) (setting [10]) of 463.773. In the assay with MKL-2 cells (VP-MCC) (setting [11]), the MKL2_AUC was 435.522. The VN-MCC_Avg_AUC in assay [2] (setting [12]) was determined as 445.807. Moreover, in [2] (setting [13]), the Control-VN-MCC is on record as 28.8613. The same molecule gave an NIH3T3_AUC in the assay on NIH-3T3 cells (setting [14]) of 462.958. This molecule came in with a VP-MCC_Avg_AUC in assay [3] (setting [15]) of 411.31. This molecule came in with a Control-VP-MCC in [3] (setting [16]) of 63.3587. In addition, the HEK293T_AUC with HEK293T cells (setting [17]) is 465.047. This molecule also displayed a UISO_AUC in the assay on UISO cells (VN-MCC) (setting [18]) of 429.085. In assay [4] (setting [19]), this molecule returned an MCC_Avg_AUC of 428.559. The Control_Avg_AUC in assay [5] (setting [20]) came out at 474.669. Besides, the MKL1_AUC with MKL-1 cells (VP-MCC) (setting [21]) is listed as 398.827. The WAGA_AUC in the assay with WAGA cells (VP-MCC) (setting [22]) is on record as 399.58.
